{"source": "patent US9468690B2", "about": "“Decorin gene delivery system and cancer treatment” ([…] CO., LTD., priority 2005, dated 2016)", "type_in_all_cases": "cell-based, human", "key": {"A549 cells [1]": {"test_system": "A549 cells", "experiment": "Flow cytometry after PI staining, subG1 cell population", "experimental": "(§1) To examine apoptosis induced by decorin, human tumor cell lines, U343, U87MG, C33A, Hep3B and A549 were introduced to 25T culture flasks and 24 hr later, were infected with each adenovirus at MOIs of 0.5-50. […] After 48 hr, 72 hr and 96 hr of infection, the infected cells were collected and fixed in 70% ethanol at 4° C. over 24 hr. Following the fixation, the cells were incubated at 4° C. with a mixture of PI (propidium iodide, 50 μg/ml) and RNase (ribonuclease) for 15 min and the FACS analysis was then performed."}, "C33A cells [2]": {"test_system": "C33A cells", "experiment": "Flow cytometry after PI staining, subG1 cell population", "experimental": "as §1"}, "Hep3B cells [3]": {"test_system": "Hep3B cells", "experiment": "Flow cytometry after PI staining, subG1 cell population", "experimental": "as §1"}, "U343 cells [4]": {"test_system": "U343 cells", "experiment": "Flow cytometry after PI staining, subG1 cell population", "experimental": "as §1"}, "U87MG cells [5]": {"test_system": "U87MG cells", "experiment": "Flow cytometry after PI staining, subG1 cell population", "experimental": "as §1"}, "U343 cells [6]": {"test_system": "U343 cells", "experiment": "Annexin V-FITC and PI dual staining, flow cytometry", "conditions": "FIG. 9b, replication-incompetent adenoviruses", "text": "In addition, to examine early apoptosis induced by decorin, several human tumor cell lines were infected with each adenovirus as described above. The infected cells were collected and then processed for Annexin V/PI dual staining according to manufacturer's instruction in the ApoAlert V-FITC (fluorescein isothiocyanate) apoptosis detection kit (Clontech, Palo Alto, Calif.), followed by flow cytometric analysis."}, "A549 cells [7]": {"test_system": "A549 cells", "experiment": "TUNEL assay", "experimental": "(§2) U343 (5×10^4), U87MG (5×10^4), C33A (5×10^5), Hep3B (4×10^5) and A549 (5×10^4) cells were plated onto a chamber slide and then infected with adenovirus at an MOI of 0.2-20. Following 24 hr and 48 hr of infection, medium was removed and TUNNEL (terminal deoxynucleotidyl transferase(TdT)-mediated dUTP nick end labeling) assay was carried out according to the manufacturer's instruction of ApopTag kit (Intergen, Purchase, N.Y.). For color development, cells were incubated with peroxidase-conjugated avidin and DAB (diaminobenzidine; DAKO, Carpinteria, Calif.). At the time that color of cells became brown, cells were counterstained with 0.5% methyl green for 10 min and observed under microscope in more than 4 selected fields. The ratio of stained cells to total cells was calculated."}, "C33A cells [8]": {"test_system": "C33A cells", "experiment": "TUNEL assay", "experimental": "as §2"}, "Hep3B cells [9]": {"test_system": "Hep3B cells", "experiment": "TUNEL assay", "experimental": "as §2"}, "U343 cells [10]": {"test_system": "U343 cells", "experiment": "TUNEL assay", "experimental": "as §2"}, "U87MG cells [11]": {"test_system": "U87MG cells", "experiment": "TUNEL assay", "experimental": "as §2"}, "[12]": {"conditions": "Table 1, oncolytic adenoviruses, 48-96 hr post-infection"}, "[13]": {"conditions": "Table 2, replication-incompetent adenoviruses"}, "[14]": {"conditions": "Table 3 lower part, replication-incompetent adenoviruses"}, "[15]": {"conditions": "Table 3 upper part, oncolytic adenoviruses"}}}
{"smiles": "CCc1c2c(nc3ccc(OC(=O)N4CCC(N5CCCCC5)CC4)cc13)-c1cc3c(c(=O)n1C2)COC(=O)[C@]3(O)CC", "note": "[CPT, camptothecin-11]", "values": [{"measurement": "subG1 cell population (%)", "setting": "A549 cells [1]; [12]", "result": 17.96, "unit": "%"}, {"measurement": "subG1 cell population (%)", "setting": "A549 cells [1]; [13]", "result": 21.59, "unit": "%"}, {"measurement": "subG1 cell population (%)", "setting": "C33A cells [2]; [12]", "result": 26.44, "unit": "%"}, {"measurement": "subG1 cell population (%)", "setting": "C33A cells [2]; [13]", "result": 68.20, "unit": "%"}, {"measurement": "subG1 cell population (%)", "setting": "Hep3B cells [3]; [12]", "result": 5.99, "unit": "%"}, {"measurement": "subG1 cell population (%)", "setting": "Hep3B cells [3]; [13]", "result": 16.60, "unit": "%"}, {"measurement": "subG1 cell population (%)", "setting": "U343 cells [4]; [12]", "result": 59.86, "unit": "%"}, {"measurement": "subG1 cell population (%)", "setting": "U343 cells [4]; [13]", "result": 29.02, "unit": "%"}, {"measurement": "subG1 cell population (%)", "setting": "U87MG cells [5]; [12]", "result": 14.78, "unit": "%"}, {"measurement": "subG1 cell population (%)", "setting": "U87MG cells [5]; [13]", "result": 12.51, "unit": "%"}, {"measurement": "apoptotic rate (Annexin V-FITC+/PI−)", "setting": "U343 cells [6]", "result": 19.41, "unit": "%"}, {"measurement": "Proportion of apoptotic cells (%)", "setting": "A549 cells [7]; [14]", "result": "69.80 ± 8.38", "unit": "%"}, {"measurement": "Proportion of apoptotic cells (%)", "setting": "A549 cells [7]; [15]", "result": "37.5 ± 5.35", "unit": "%"}, {"measurement": "Proportion of apoptotic cells (%)", "setting": "C33A cells [8]; [14]", "result": "70.51 ± 15.90", "unit": "%"}, {"measurement": "Proportion of apoptotic cells (%)", "setting": "C33A cells [8]; [15]", "result": "60.1 ± 25.91", "unit": "%"}, {"measurement": "Proportion of apoptotic cells (%)", "setting": "Hep3B cells [9]; [14]", "result": "75.86 ± 3.11", "unit": "%"}, {"measurement": "Proportion of apoptotic cells (%)", "setting": "Hep3B cells [9]; [15]", "result": "71.2 ± 15.73", "unit": "%"}, {"measurement": "Proportion of apoptotic cells (%)", "setting": "U343 cells [10]; [14]", "result": "74.67 ± 12.38", "unit": "%"}, {"measurement": "Proportion of apoptotic cells (%)", "setting": "U343 cells [10]; [15]", "result": "53.5 ± 7.45", "unit": "%"}, {"measurement": "Proportion of apoptotic cells (%)", "setting": "U87MG cells [11]; [14]", "result": "40.00 ± 13.17", "unit": "%"}, {"measurement": "Proportion of apoptotic cells (%)", "setting": "U87MG cells [11]; [15]", "result": "83.0 ± 29.29", "unit": "%"}]}
